Activity calls are given as the source filed them. No cut-off for these calls is given here.
Key:
A549 [1] = assay: Cytotoxicity against human A549 cells at 1 uM treated 24 hrs post aerobic condition and measured after 72 hrs under aerobic condition by WST-8 assay relative to control; type: cell-based; conditions: a549, 72 h
[2] = biological target: T1, NADPH--cytochrome P450 reductase (Homo sapiens, UniProt P16435); assay: Prodrug activation in pH 7.4 PBS buffer assessed as 3.3 ug/mL NADPH-cytochrome P450 reductase (unknown origin) mediated FdUrd formation at 0.62 mM in the presence of beta-NADPH measured after 2 hrs under hypoxic condition by reverse phase HPLC relative to control; type: ADME; conditions: pH 7.4, 2 h, 620 µM
T1 sequence (P16435 whole entry): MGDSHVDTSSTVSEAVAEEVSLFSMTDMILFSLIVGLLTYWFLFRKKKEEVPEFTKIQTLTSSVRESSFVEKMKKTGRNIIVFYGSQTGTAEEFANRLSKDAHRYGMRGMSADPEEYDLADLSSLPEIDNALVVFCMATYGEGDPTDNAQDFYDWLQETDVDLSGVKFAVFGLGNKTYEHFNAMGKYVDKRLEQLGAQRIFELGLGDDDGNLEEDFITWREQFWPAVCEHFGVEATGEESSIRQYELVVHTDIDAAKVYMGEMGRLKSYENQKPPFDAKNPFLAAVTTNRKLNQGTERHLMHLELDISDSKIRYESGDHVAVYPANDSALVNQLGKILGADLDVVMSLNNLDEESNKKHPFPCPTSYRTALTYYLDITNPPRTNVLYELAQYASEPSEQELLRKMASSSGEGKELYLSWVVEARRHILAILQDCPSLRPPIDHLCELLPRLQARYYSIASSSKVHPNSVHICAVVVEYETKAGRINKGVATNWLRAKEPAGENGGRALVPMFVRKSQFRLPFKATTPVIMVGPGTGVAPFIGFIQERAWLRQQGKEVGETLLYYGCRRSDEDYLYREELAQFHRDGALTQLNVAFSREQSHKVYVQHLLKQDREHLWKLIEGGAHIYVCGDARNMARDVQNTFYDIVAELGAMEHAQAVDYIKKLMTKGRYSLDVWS

[3] = biological target: T1, NADPH--cytochrome P450 reductase; assay: Prodrug activation in pH 7.4 PBS buffer assessed as 3.3 ug/mL NADPH-cytochrome P450 reductase (unknown origin) mediated FdUrd formation at 0.62 mM in the presence of beta-NADPH measured after 2 hrs under aerobic condition by reverse phase HPLC; type: ADME; conditions: pH 7.4, 2 h, 620 µM
A549 [4] = assay: Cytotoxicity against human A549 cells at 1 to 50 uM treated 24 hrs post hypoxic condition measured after 72 hrs under hypoxic condition by WST-8 assay relative to control; type: functional, cell-based
[5] = substrate: COC1=CC(=O)c2c(c(Cn3c(=O)c(F)cn([C@H]4C[C@H](O)[C@@H](CO)O4)c3=O)c(C)n2C)C1=O; assay: Prodrug conversion in pH 7.4 PBS buffer assessed as NADPH-cytochrome P450 reductase (unknown origin) mediated FdUrd release by measuring Km at 0.62 mM in the presence of beta-NADPH measured after 2 hrs under aerobic condition by Lineweaver-Burk plot analysis; type: ADME, Homo sapiens
[6] = substrate: COC1=CC(=O)c2c(c(Cn3c(=O)c(F)cn([C@H]4C[C@H](O)[C@@H](CO)O4)c3=O)c(C)n2C)C1=O; assay: Prodrug conversion in pH 7.4 PBS buffer assessed as NADPH-cytochrome P450 reductase (unknown origin) mediated FdUrd release by measuring Km at 0.62 mM in the presence of beta-NADPH measured after 2 hrs under hypoxic condition by Lineweaver-Burk plot analysis; type: ADME, Homo sapiens

O=c1[nH]c(=O)n([C@H]2C[C@H](O)[C@@H](CO)O2)cc1F [FLOXURIDINE]
Activity (A549 [1]): Toxic

CNC1=CC(=O)c2c(c(Cn3c(=O)c(F)cn([C@H]4C[C@H](O)[C@@H](CO)O4)c3=O)c(C)n2C)C1=O
Drug metabolism [2]: Metabolite_Notdetected

COC1=CC(=O)c2c(c(Cn3c(=O)c(F)cn([C@H]4C[C@H](O)[C@@H](CO)O4)c3=O)c(C)n2C)C1=O
Drug metabolism [3]: Metabolite_Notdetected | Activity (A549 [4]): Active | Activity (A549 [1]): Non-Toxic

B1: NADPH--cytochrome P450 reductase (Homo sapiens) (protein)
chain: MGDSHVDTSSTVSEAVAEEVSLFSMTDMILFSLIVGLLTYWFLFRKKKEEVPEFTKIQTLTSSVRESSFVEKMKKTGRNIIVFYGSQTGTAEEFANRLSKDAHRYGMRGMSADPEEYDLADLSSLPEIDNALVVFCMATYGEGDPTDNAQDFYDWLQETDVDLSGVKFAVFGLGNKTYEHFNAMGKYVDKRLEQLGAQRIFELGLGDDDGNLEEDFITWREQFWPAVCEHFGVEATGEESSIRQYELVVHTDIDAAKVYMGEMGRLKSYENQKPPFDAKNPFLAAVTTNRKLNQGTERHLMHLELDISDSKIRYESGDHVAVYPANDSALVNQLGKILGADLDVVMSLNNLDEESNKKHPFPCPTSYRTALTYYLDITNPPRTNVLYELAQYASEPSEQELLRKMASSSGEGKELYLSWVVEARRHILAILQDCPSLRPPIDHLCELLPRLQARYYSIASSSKVHPNSVHICAVVVEYETKAGRINKGVATNWLRAKEPAGENGGRALVPMFVRKSQFRLPFKATTPVIMVGPGTGVAPFIGFIQERAWLRQQGKEVGETLLYYGCRRSDEDYLYREELAQFHRDGALTQLNVAFSREQSHKVYVQHLLKQDREHLWKLIEGGAHIYVCGDARNMARDVQNTFYDIVAELGAMEHAQAVDYIKKLMTKGRYSLDVWS
Km [5]: 1500 µM | Vmax [5]: 2e-07 µmol/min | Km [6]: 1000 µM | Vmax [6]: 3.4e-06 µmol/min
